Source: patent US20260132129A1 (Genesis Therapeutics, Inc., priority 2022, published 2026)

Biological target: T1, PI3Kα H1047R (T47D cells) (Homo sapiens, UniProt P42336, H1047R)
T1 construct: endogenous in cells; host or cells: T47D cells
Test: PI3Kα cellular assay: pAKT HTRF in T47D cells after EGF stimulation
Assay type: cell-based
Conditions: for IC50: T47D cells (PI3Kα H1047R), pAKT S473 HTRF
How it was run: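 T47D cells (PIK3CA H1047R) serum-starved 16 h, then treated 1 h at 37 °C with compound (10,000 nM top, 3-fold steps to 0.5 nM). After 10 min stimulation with 20 ng/mL EGF, cells were lysed and pAKT measured by HTRF.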

[1] = 1 hr compound, 20 ng/ml EGF 10 min
[2] = selectivity T47D (H1047R) over SKBR3 (WT), pAKT HTRF
[3] = selectivity of T47D (H1047R) over SKBR3 (WT) pAKT IC50

T1 sequence (P42336 whole entry H1047R): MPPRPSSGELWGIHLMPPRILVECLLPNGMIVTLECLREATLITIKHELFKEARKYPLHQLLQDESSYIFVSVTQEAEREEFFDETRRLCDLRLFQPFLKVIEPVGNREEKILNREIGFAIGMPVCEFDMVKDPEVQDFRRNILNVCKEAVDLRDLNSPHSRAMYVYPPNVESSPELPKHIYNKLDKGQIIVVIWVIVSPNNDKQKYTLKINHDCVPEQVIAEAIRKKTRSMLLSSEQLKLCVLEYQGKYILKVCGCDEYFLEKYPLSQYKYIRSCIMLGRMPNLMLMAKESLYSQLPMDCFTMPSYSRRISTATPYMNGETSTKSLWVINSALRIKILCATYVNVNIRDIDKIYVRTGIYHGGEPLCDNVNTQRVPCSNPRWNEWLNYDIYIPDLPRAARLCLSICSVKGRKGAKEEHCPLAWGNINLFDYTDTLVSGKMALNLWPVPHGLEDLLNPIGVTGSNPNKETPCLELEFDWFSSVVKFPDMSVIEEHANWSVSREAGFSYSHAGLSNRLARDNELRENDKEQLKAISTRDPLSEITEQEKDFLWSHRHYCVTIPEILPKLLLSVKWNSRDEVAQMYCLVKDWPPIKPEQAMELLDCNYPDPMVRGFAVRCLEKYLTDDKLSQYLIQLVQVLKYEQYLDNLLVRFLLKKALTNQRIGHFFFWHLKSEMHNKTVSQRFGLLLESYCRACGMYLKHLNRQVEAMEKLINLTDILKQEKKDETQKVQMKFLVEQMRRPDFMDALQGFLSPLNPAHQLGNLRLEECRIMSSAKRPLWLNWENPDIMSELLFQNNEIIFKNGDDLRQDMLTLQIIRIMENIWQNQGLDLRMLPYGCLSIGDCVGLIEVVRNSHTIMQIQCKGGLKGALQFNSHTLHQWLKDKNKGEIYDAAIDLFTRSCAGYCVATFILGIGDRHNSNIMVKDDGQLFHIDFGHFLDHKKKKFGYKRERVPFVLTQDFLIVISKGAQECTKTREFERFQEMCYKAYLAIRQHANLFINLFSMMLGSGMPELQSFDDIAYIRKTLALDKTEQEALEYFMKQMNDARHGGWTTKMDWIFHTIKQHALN
T1 sequence (P27986 whole entry partner): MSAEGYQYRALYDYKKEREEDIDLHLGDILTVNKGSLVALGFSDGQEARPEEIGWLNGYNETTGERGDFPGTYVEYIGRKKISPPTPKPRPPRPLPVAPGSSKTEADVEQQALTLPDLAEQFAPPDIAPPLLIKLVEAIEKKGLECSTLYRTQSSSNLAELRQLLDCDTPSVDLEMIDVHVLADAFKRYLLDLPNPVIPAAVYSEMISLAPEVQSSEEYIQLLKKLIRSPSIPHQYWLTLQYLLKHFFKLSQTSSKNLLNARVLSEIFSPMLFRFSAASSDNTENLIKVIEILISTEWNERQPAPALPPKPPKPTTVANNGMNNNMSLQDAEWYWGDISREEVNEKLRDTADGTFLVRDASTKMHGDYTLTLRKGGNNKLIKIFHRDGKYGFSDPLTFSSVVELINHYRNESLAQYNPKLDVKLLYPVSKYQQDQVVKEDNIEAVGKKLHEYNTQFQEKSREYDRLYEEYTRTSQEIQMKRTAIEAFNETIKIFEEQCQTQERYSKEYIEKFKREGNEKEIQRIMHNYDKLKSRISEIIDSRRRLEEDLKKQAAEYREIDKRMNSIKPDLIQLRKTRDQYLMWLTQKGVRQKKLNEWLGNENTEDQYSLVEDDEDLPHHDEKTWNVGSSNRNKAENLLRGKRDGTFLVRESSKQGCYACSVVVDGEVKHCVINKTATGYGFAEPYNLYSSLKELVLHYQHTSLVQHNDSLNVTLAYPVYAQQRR

| SMILES | IC50 [1] [nM] | T47D pAKT S473 HTRF IC50 (H1047R): T47D (H1047R) selectivity over SKBR3 (WT) [2] | IC50 (EGF stimulation) [nM] | T47D pAKT S473 HTRF IC50 (H1047R): T47D (H1047R) selectivity over SKBR3 (WT) [3] |
| --- | --- | --- | --- | --- |
| CCc1cc([C@@H](C)Nc2ccccc2C(=O)O)c2nc(N3CCOCC3)cc(=O)n2c1 [Compound 149] | > 2000 | C (C denotes ≤5-fold) |  |  |
| Cc1cc([C@H](C)Nc2ccccc2C(=O)O)c2nc(-c3cc4c(N)nn(C)c4cc3C)cc(=O)n2c1 [Compound 705] |  |  | > 2000 | C (C denotes ≤5-fold) |
| Cc1cc([C@H](C)Oc2ccccc2C(=O)O)c2nc(-c3cccc(F)c3)c(C)c(=O)n2c1 [Compound 1373] |  | C (C denotes ≤5-fold) | > 2000 |  |
| Cc1cc(C(C)Nc2ccccc2C(=O)O)c2nc(-c3cc(C)nc(Cl)c3)c(C)c(=O)n2c1 (centres unmarked) [Compound 1099] |  | A (A denotes >20-fold) | < 100 |  |
| Cc1cc([C@H](C)Nc2ccccc2C(=O)O)c2nc(N3Cc4ccccc4[C@H]3C)cc(=O)n2c1 [Compound 654] |  |  | 500 to 2000 | B (B denotes 20-fold≥value>5-fold) |
| Cc1cc([C@@H](C)Nc2ccccc2C(=O)O)c2nc(N3CC(Cl)C3)cc(=O)n2c1 [Compound 364] | < 100 | A (A denotes >20-fold) |  |  |
| Cc1cc([C@H](C)Nc2ccccc2S(N)(=O)=O)c2nc(N3CCOCC3)cc(=O)n2c1 [Compound 152] | 500 to 2000 | B (B denotes 20-fold≥value>5-fold) |  |  |
| Cc1cc(C(C)Nc2ccccc2C(=O)O)c2nc(C3CCC(NS(C)(=O)=O)CC3)c(C)c(=O)n2c1 (centres unmarked) [Compound 543] | > 2000 | C (C denotes ≤5-fold) |  |  |
| CC(Nc1ccccc1C(=O)O)c1cc(C(N)=O)cn2c(=O)cc(N3CCOCC3)nc12 (centres unmarked) [Compound 276] | < 100 | C (C denotes ≤5-fold) |  |  |
| Cc1cc(C(C)Nc2ccccc2C(=O)O)c2nc(-c3ccc4nc(NC(=O)C5CC5)nn4c3)cc(=O)n2c1 (centres unmarked) [Compound 519] | > 2000 | C (C denotes ≤5-fold) |  |  |
| Cc1cc([C@H](C)Nc2ccccc2C(=O)O)c2nc(-c3cc(C)c(F)c(C)c3)cc(=O)n2c1 [Compound 663] |  |  | > 2000 | C (C denotes ≤5-fold) |
| CC(=O)N1CCC(c2cc(=O)n3cc(C)cc([C@H](C)Nc4ccccc4C(=O)O)c3n2)CC1 [Compound 523] | 500 to 2000 | B (B denotes 20-fold≥value>5-fold) |  |  |
| Cc1cc(C(C)Nc2ccccc2C(=O)O)c2nc(N3CCN(CCC(N)=O)CC3)cc(=O)n2c1 (centres unmarked) [Compound 550] | > 2000 | C (C denotes ≤5-fold) |  |  |
| Cc1cc([C@@H](C)Nc2ccccc2C(N)=O)c2nc(-c3cccc(C#N)c3)c(C)c(=O)n2c1 [Compound 1137] |  | A (A denotes >20-fold) | < 100 |  |
| Cc1cc(CCNc2ccc(F)cc2C(=O)O)c2nc(N3CCOCC3)cc(=O)n2c1 [Compound 806] |  |  | > 2000 | C (C denotes ≤5-fold) |
| Cc1cc([C@H](C)Nc2ccccc2C(=O)O)c2nc(-c3ccc4[nH]c(=O)sc4c3)c(C)c(=O)n2c1 [Compound 946] |  |  | 500 to 2000 | B (B denotes 20-fold≥value>5-fold) |
| Cc1cc([C@@H](C)Nc2ccccc2C(=O)O)c2nc(-c3ccc4nc(NC(=O)C5CC5)nn4c3)cc(=O)n2c1 [Compound 520] | > 2000 | C (C denotes ≤5-fold) |  |  |
| Cc1cc([C@H](C)Nc2cccnc2-c2ccnnc2)c2nc(N3Cc4ccccc4C3)cc(=O)n2c1 [Compound 943] |  |  | 100 to 500 | A (A denotes >20-fold) |
| Cc1cc([C@@H](C)Nc2ccccc2C(=O)O)c2nc(N3CC[Si](C)(C)CC3)cc(=O)n2c1 [Compound 446] | > 2000 | C (C denotes ≤5-fold) |  |  |
| Cc1cc(C(C)Nc2ccccc2C(=O)C(F)(F)F)c2nc(N3Cc4ccccc4C3)c(C)c(=O)n2c1 (centres unmarked) [Compound 926] |  |  | > 2000 | C (C denotes ≤5-fold) |
| Cc1cc([C@H](C)Nc2ccccc2C(=O)O)c2nc(Nc3ccc4[nH]c(=O)[nH]c4c3)cc(=O)n2c1 [Compound 574] | > 2000 | C (C denotes ≤5-fold) |  |  |
| Cc1cc([C@H](C)Nc2ccccc2C(=O)O)c2nc(-c3ccc4c(c3)CC(=O)N4)cc(=O)n2c1 [Compound 478] | 100 to 500 | A (A denotes >20-fold) |  |  |

| SMILES | IC50 [1] [nM] | T47D pAKT S473 HTRF IC50 (H1047R): T47D (H1047R) selectivity over SKBR3 (WT) [2] | IC50 (EGF stimulation) [nM] | T47D pAKT S473 HTRF IC50 (H1047R): T47D (H1047R) selectivity over SKBR3 (WT) [3] |
| --- | --- | --- | --- | --- |
| Cc1cc([C@H](C)Nc2ccccc2C(=O)O)c2nc(-c3ccc4c(c3)COC4)cc(=O)n2c1 [Compound 852] |  |  |  | C (C denotes ≤5-fold) |
| CCc1c(-c2ccc(F)cc2)nc2c([C@@H](C)Nc3ccccc3C(=O)O)cc(C)cn2c1=O [Compound 1115] |  | A (A denotes >20-fold) | < 100 |  |
| Cc1cc([C@H](C)Nc2ccccc2C(=O)O)c2nc(-c3ccc4c(c3)CC(F)(F)C4)cc(=O)n2c1 [Compound 854] |  |  | > 2000 |  |
| Cc1cc([C@H](C)Nc2ccccc2C(=O)O)c2nc(C3C[C@@H](C)O[C@@H](C)C3)cc(=O)n2c1 (some centres unmarked) [Compound 925] |  |  | 500 to 2000 | B (B denotes 20-fold≥value>5-fold) |
| Cc1cc(C(C)Nc2ccsc2-c2ccnnc2)c2nc(N3Cc4ccccc4C3)c(C)c(=O)n2c1 (centres unmarked) [Compound 1409, 2-(isoindolin-2-yl)-3,7-dimethyl-9-(1-((2-(pyridazin-4-yl)thiophen-3-yl)amino)ethyl)-4H-pyrido[1,2-a]pyrimidin-4-one] |  | A (A denotes >20-fold) | 100 to 500 |  |
| Cc1cc(C(C)Nc2ccccc2C(=O)O)c2nc(-c3ccc(C(C)C)nc3)c(C)c(=O)n2c1 (centres unmarked) [Compound 1178] |  | A (A denotes >20-fold) | < 100 |  |
| Cc1cc([C@@H](C)Nc2ccccc2C(=O)O)c2nc(-c3ccc4c(c3)c(C)cn4C)c(C)c(=O)n2c1 (single isomer, unassigned) [Compound 902] |  |  | < 100 | A (A denotes >20-fold) |
| CC(=O)N1CCC(Cc2ccc(-c3nc4c([C@H](C)Nc5ccccc5C(=O)O)cc(C)cn4c(=O)c3C)cc2F)CC1 [Compound 1334] |  | B (B denotes 20-fold≥value>5-fold) |  |  |
| Cc1cc(C(C)Nc2ccccc2C(=O)O)c2nc(N3C[C@@H](C)O[C@@H](C)C3)c(C)c(=O)n2c1 (some centres unmarked) [Compound 915] |  |  | 100 to 500 | A (A denotes >20-fold) |
| Cc1cc([C@@H](C)Nc2cccc3nonc23)c2nc(N3CCOCC3)cc(=O)n2c1 [Compound 802] |  |  | > 2000 | C (C denotes ≤5-fold) |
| Cc1cc(C(C)Nc2ccccc2C(=O)O)c2nc(-c3ccc(CC4CCN(C(=O)C5CC5)CC4)c(F)c3)c(C)c(=O)n2c1 (centres unmarked) [Compound 1313] |  | A (A denotes >20-fold) | 100 to 500 |  |
| Cc1cc([C@@H](C)Nc2ccccc2C(=O)O)c2nc(N3C[C@@H](C)C(F)(F)[C@@H](C)C3)cc(=O)n2c1 (single isomer, unassigned) [Compound 711] |  |  | < 100 | A (A denotes >20-fold) |
| Cc1cc([C@H](C)Nc2ccccc2C#N)c2nc(N3CCOCC3)cc(=O)n2c1 [Compound 338] | > 2000 | C (C denotes ≤5-fold) |  |  |
| Cc1cc(C(C)Nc2cccc3oc(=O)[nH]c23)c2nc(N3CCOCC3)cc(=O)n2c1 (centres unmarked) [Compound 918] |  |  | > 2000 | C (C denotes ≤5-fold) |
| Cc1cc([C@@H](C)Nc2ccccc2S(N)(=O)=O)c2nc(-c3cccc(C#N)c3)c(C)c(=O)n2c1 [Compound 1034] |  |  | < 100 | A (A denotes >20-fold) |
| Cc1cc([C@H](C)Nc2ccccc2C(=O)O)c2nc(N3CCO[C@H](C)C3)cc(=O)n2c1 [Compound 374] | < 100 | A (A denotes >20-fold) |  |  |
| Cc1cc(C(C)Nc2ccccc2C(=O)O)c2nc(C#CC3CC3)c(C)c(=O)n2c1 (centres unmarked) [Compound 1186] |  | A (A denotes >20-fold) | 100 to 500 |  |
| Cc1cc(C(C)Nc2ccccc2C(=O)O)c2nc(-c3ccc4c(c3)c(C(F)(F)F)nn4C)cc(=O)n2c1 (centres unmarked) [Compound 724] |  |  | 100 to 500 | A (A denotes >20-fold) |
| Cc1cc(C(C)NC2CCN(S(=O)(=O)N(C)C)C2)c2nc(N3Cc4ccccc4C3)cc(=O)n2c1 (centres unmarked) [Compound 834] |  |  | > 2000 | C (C denotes ≤5-fold) |
| Cc1cc([C@@H](C)Nc2ccccc2S(N)(=O)=O)c2nc(N3Cc4ccccc4C3)c(C)c(=O)n2c1 (single isomer, unassigned) [Compound 856] |  |  | < 100 | A (A denotes >20-fold) |
| Cc1cc(C(C)Nc2ccccc2-c2ccnnc2)c2nc(-c3ccc4c(C)cn(C)c4c3)c(C)c(=O)n2c1 (centres unmarked) [Compound 1132] |  | C (C denotes ≤5-fold) | > 2000 |  |
